Source: ChEMBL document CHEMBL1201862, “PubChem BioAssay data set” (2004)
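48-hour exposure; five concentrations; linearly interpolated endpoints. GI50 marks 50% less growth.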 Active and inactive are the calls of the source. Cut-off read from the data, not from the text of the source: active = GI50 up to about 1.1 µM and inactive = higher.

Experiments:
Experiment in all cases: NCI tumour cell line growth inhibition, 48 h
[1] = test system: RXF 393
[2] = test system: SK-OV-3
[3] = test system: RPMI-8226
[4] = test system: HOP-62
[5] = test system: CAKI-1
[6] = test system: SR
[7] = test system: SK-MEL-5
[8] = test system: EKVX
[9] = test system: KM12
[10] = test system: A549
[11] = test system: NCI-H23
[12] = test system: SF-539
[13] = test system: UACC-62
[14] = test system: OVCAR-3
[15] = test system: K562
[16] = test system: IGROV-1
[17] = test system: Malme-3M
[18] = test system: SNB-19
[19] = test system: CCRF-CEM
[20] = test system: NCI/ADR-RES

CC1CN=C(Nc2ccc(F)c(Cl)c2)S1 (centres undefined)
GI50 [1]: 37.6 µM (inactive) | GI50 [2]: > 100 µM (inactive) | GI50 [3]: 39.3 µM (inactive) | GI50 [4]: > 100 µM (inactive) | GI50 [5]: 53.6 µM (inactive) | GI50 [6]: 31.5 µM (inactive) | GI50 [7]: 58.5 µM (inactive) | GI50 [8]: 43.2 µM (inactive) | GI50 [9]: > 100 µM (inactive) | GI50 [10]: 88.9 µM (inactive) | GI50 [11]: 51.5 µM (inactive) | GI50 [12]: > 100 µM (inactive) | GI50 [13]: > 100 µM (inactive) | GI50 [14]: > 100 µM (inactive) | GI50 [15]: 62.1 µM (inactive) | GI50 [16]: 81.7 µM (inactive) | GI50 [17]: > 100 µM (inactive) | GI50 [18]: > 100 µM (inactive) | GI50 [19]: 29.7 µM (inactive) | GI50 [20]: 42.5 µM (inactive)

NC1CNC(=O)c2c(Cl)sc(Cl)c21 (centres undefined)
GI50 [1]: > 100 µM (inactive) | GI50 [2]: > 100 µM (inactive) | GI50 [3]: > 100 µM (inactive) | GI50 [4]: > 100 µM (inactive) | GI50 [5]: > 100 µM (inactive) | GI50 [6]: 41.4 µM (inactive) | GI50 [8]: > 100 µM (inactive) | GI50 [9]: > 100 µM (inactive) | GI50 [10]: > 100 µM (inactive) | GI50 [11]: > 100 µM (inactive) | GI50 [12]: > 100 µM (inactive) | GI50 [13]: > 100 µM (inactive) | GI50 [14]: > 100 µM (inactive) | GI50 [15]: > 100 µM (inactive) | GI50 [16]: > 100 µM (inactive) | GI50 [17]: > 100 µM (inactive) | GI50 [18]: > 100 µM (inactive) | GI50 [19]: > 10 µM (inactive) | GI50 [20]: > 100 µM (inactive)

O=C(Nc1ccccc1)N(C1=NCC(CI)S1)c1ccc(F)cc1F (centres undefined)
GI50 [1]: 24.3 µM (inactive) | GI50 [2]: > 100 µM (inactive) | GI50 [3]: 56.2 µM (inactive) | GI50 [4]: > 100 µM (inactive) | GI50 [5]: 25.4 µM (inactive) | GI50 [6]: 12.2 µM (inactive) | GI50 [7]: 46 µM (inactive) | GI50 [8]: > 100 µM (inactive) | GI50 [9]: 45.6 µM (inactive) | GI50 [10]: > 100 µM (inactive) | GI50 [11]: 50.6 µM (inactive) | GI50 [12]: 59.3 µM (inactive) | GI50 [13]: 25.6 µM (inactive) | GI50 [14]: > 100 µM (inactive) | GI50 [15]: 41.5 µM (inactive) | GI50 [16]: 20.9 µM (inactive) | GI50 [17]: > 100 µM (inactive) | GI50 [18]: > 100 µM (inactive) | GI50 [19]: 15.3 µM (inactive) | GI50 [20]: > 100 µM (inactive)

Cc1nn(-c2ccccc2)c(C)c1/C=N/NC(=O)c1sc(=S)n(-c2ccccc2)c1N
GI50 [1]: 1.46 µM (inactive) | GI50 [2]: 1.45 µM (inactive) | GI50 [3]: 3.35 µM (inactive) | GI50 [4]: 9.84 µM (inactive) | GI50 [5]: 1.56 µM (inactive) | GI50 [6]: 3.94 µM (inactive) | GI50 [7]: 4.06 µM (inactive) | GI50 [8]: 3.39 µM (inactive) | GI50 [9]: 6.05 µM (inactive) | GI50 [10]: 3.9 µM (inactive) | GI50 [11]: 6.81 µM (inactive) | GI50 [12]: 2.39 µM (inactive) | GI50 [13]: 4.62 µM (inactive) | GI50 [14]: 16.1 µM (inactive) | GI50 [15]: 0.681 µM (active) | GI50 [16]: 0.221 µM (active) | GI50 [17]: 3.58 µM (inactive) | GI50 [18]: 30.8 µM (inactive) | GI50 [19]: 5.16 µM (inactive) | GI50 [20]: 3.62 µM (inactive)

CC(=O)O[C@H]1[C@@H](N2CCOCC2)C[C@H]2[C@@H]3CC=C4C[C@@H](N5CCCC5)CC[C@]4(C)[C@H]3CC[C@@]21C
GI50 [1]: > 100 µM (inactive) | GI50 [2]: > 100 µM (inactive) | GI50 [3]: > 100 µM (inactive) | GI50 [4]: > 100 µM (inactive) | GI50 [5]: > 100 µM (inactive) | GI50 [6]: 49.7 µM (inactive) | GI50 [7]: > 100 µM (inactive) | GI50 [8]: > 100 µM (inactive) | GI50 [9]: > 100 µM (inactive) | GI50 [10]: > 100 µM (inactive) | GI50 [11]: > 100 µM (inactive) | GI50 [12]: 73.8 µM (inactive) | GI50 [13]: > 100 µM (inactive) | GI50 [14]: > 100 µM (inactive) | GI50 [15]: 24 µM (inactive) | GI50 [16]: > 100 µM (inactive) | GI50 [17]: > 100 µM (inactive) | GI50 [18]: > 100 µM (inactive) | GI50 [19]: > 100 µM (inactive) | GI50 [20]: > 100 µM (inactive)

COc1cc(/C=N/N=C(\N)NO)cc(OC)c1OC
GI50 [1]: 52.6 µM (inactive) | GI50 [2]: 67.8 µM (inactive) | GI50 [3]: 37.2 µM (inactive) | GI50 [4]: 27.4 µM (inactive) | GI50 [5]: 72.4 µM (inactive) | GI50 [6]: 24.5 µM (inactive) | GI50 [7]: 20.6 µM (inactive) | GI50 [8]: 19.6 µM (inactive) | GI50 [9]: 18.7 µM (inactive) | GI50 [10]: 18.7 µM (inactive) | GI50 [11]: 38.2 µM (inactive) | GI50 [12]: 30.5 µM (inactive) | GI50 [13]: 13.5 µM (inactive) | GI50 [14]: 21.9 µM (inactive) | GI50 [15]: 21.6 µM (inactive) | GI50 [16]: 42.7 µM (inactive) | GI50 [17]: 22 µM (inactive) | GI50 [18]: > 100 µM (inactive) | GI50 [19]: 31.8 µM (inactive) | GI50 [20]: 15.7 µM (inactive)

Fc1c(F)c(F)c2c(c1F)CSc1nc3ccccc3n1-2
GI50 [1]: > 100 µM (inactive) | GI50 [2]: > 100 µM (inactive) | GI50 [3]: > 100 µM (inactive) | GI50 [4]: > 100 µM (inactive) | GI50 [5]: > 100 µM (inactive) | GI50 [6]: > 100 µM (inactive) | GI50 [7]: > 100 µM (inactive) | GI50 [8]: 5.16 µM (inactive) | GI50 [9]: > 100 µM (inactive) | GI50 [10]: > 100 µM (inactive) | GI50 [11]: > 100 µM (inactive) | GI50 [12]: > 100 µM (inactive) | GI50 [13]: > 100 µM (inactive) | GI50 [14]: > 100 µM (inactive) | GI50 [15]: > 100 µM (inactive) | GI50 [16]: > 100 µM (inactive) | GI50 [17]: > 100 µM (inactive) | GI50 [18]: > 100 µM (inactive) | GI50 [19]: > 100 µM (inactive) | GI50 [20]: > 100 µM (inactive)
